Measured values: patent publication US20240398844A1, “PHENYLCOUMARINS FOR TREATING INFLAMMATION” (Ohio State Innovation Foundation, priority 2021, published 2024)

Assays:
[1] = Solubility in NMR solvents; type: physicochemical; details: CD3OD
Procedure: Solubility of the fractions was a challenge, and chloroform-d (CDCl3), […], methanol-d4 (CD3OD), dimethyl sulfoxide-d6, and water-d2 (D2O) (Cambridge Isotope Laboratories, Tewksbury, MA, USA) were all tried as solvents. […] Since there was only 1.5 mg of material, further purification and structure elucidation were not pursued.
Fraction 3 was most soluble in D2O, and at approximately 11 mg/mL, ^1H and ^13C NMR data were obtained in an effort to confirm the presence of an isopropyl ether derivative (40). However, solubility of fraction 3 continued to be problematic even in D2O. Further acquisition attempts with increased probe temperature (310 K) were no more successful at keeping the compound (40) in solution.

GLUT-4 = assay: Diabetic zebrafish Western blot, GLUT-4 expression; type: in vivo; details: 10 μM, FIG. 5
Procedure: Alloxan-induced diabetic zebrafish were treated with compounds for immunoblot to validate the newly developed animal model, determine the antidiabetic potential of natural product leads, evaluate glucose metabolism, and discover possible mechanisms of action.
At 72 hpf, naturally dechorionated zebrafish were sorted into a 24-well microplate with 10 fish per well. Type 2 diabetes was induced with the diabetogenic agent alloxan at a dose of 0.5 mg/mL in system water for 3 hours. The incubation solution was changed to 0.01% DMSO in system water with compounds at concentrations of 20 μg/mL or […], respectively. After 3 hours of treatment with natural product samples, 10 mg/mL D-glucose was administered in system water for 30 minutes, followed by 1 hour in fresh system water to metabolize the glucose and natural product leads. Upon completion of the 4-phase treatment cycle, zebrafish treatment groups were snap frozen into individual microcentrifuge tubes on dry ice, stored overnight at −80° C., thawed, homogenized with 2 μL PBS per animal, and centrifuged at 4° C. for 1 hour at 17,000 rpm. Protein content of homogenate supernatant was determined using the Pierce BCA Protein Assay kit (Pierce Biotechnology) and bovine serum albumin (BSA) standard curve. Absorbance of protein solutions from zebrafish homogenates and serial dilutions of the BSA standard were measured at 544 nm, using a FLUOstar Optima plate reader (BMG Labtechnologies GmbH, Inc.). Homogenates were analyzed by Western blot. Equal amounts of protein (20 μg) were combined with 4× lithium dodecyl sulphate (LDS) loading buffer (NuPAGE, Life Technologies, Carlsbad, CA, USA), brought to volume (15 μL) with PBS, and heated to 95° C. for 5 minutes. […]
Electrophoresis was performed using NuPAGE MES SDS Running Buffer and XCell SureLock Mini-Cell Electrophoresis System (Life Technologies). […] Conjugated antibodies were detected using SuperSignal West Femto chemiluminescent substrate from Pierce Biotechnology. […] Band density was quantified for proteins of interest using ImageJ Gel Analysis. […]

| solubility (relative) [1] | SMILES | GLUT-4 expression (Western blot) (GLUT-4) |
| --- | --- | --- |
| even less soluble than 24 | COc1cc(O[C@@H]2OCC(O)(CO[C@@H]3OC(CO)[C@@H](O)C(O)C3O)C2O)c2c(-c3ccc(OC(C)C)c(O)c3)cc(=O)oc2c1 (single isomer, unassigned) [Compound 40] |  |
|  | COc1cc(O[C@@H]2O[C@H](CO[C@@H]3OCC(O)(CO)[C@H]3O)[C@@H](O)[C@H](O)[C@H]2O)c2c(-c3ccc(O)c(O)c3)cc(=O)oc2c1 (stereo partly drawn) [Compound 24, 5-O-[β-D-apiofuranosyl-(1→6)-β-D-glucopyranosyl]-7-methoxy-3′,4′-dihydroxy-4-phenylcoumarin] | strong GLUT-4 expression |
